Measurements taken from patent US7601745B2, “Heterocyclic NF-kB inhibitors” (4SC AG, priority 2004, dated 2009).

System: A549-NF-κB-SEAP reporter cells
Test: Inhibition of NF-κB-induced inflammation ([…] NINA Instant Assay, SEAP reporter)
Format: cell-based
Conditions: NF-κB inflammation assay
Description: For the determination of anti-inflammatory activity of the compounds the […]® NINA Instant Assay from Cell Culture Service GmBH was used. This assay is based on recombinant A549-NF-κB-SEAP reporter cells preseeded in 96-well flat bottom plates. As the transfected reportergen for SEAP (secreted embryonic alkaline phosphatase) is under transcriptional control of a NF-κB-responsive element, the expression of this reporter is activated upon stimulation with TNF-α. SEAP secretion into the culture supernatant can be detected by the chemiluminescent substrate CSPD®. Test compounds that inhibit the NF-κB activation show reduced SEAP activity and reduced luminescent readout.
Following 18 h of reactivation at 37° C., 5% CO2 and 90% relative humidity, the cells were incubated with 0.01 up to 100 μM of test compound for 4.5 h before stimulation with 2 ng/ml TNF-α. After stimulation with TNF-α for 22 h endogenous phosphatases were inactivated and CSPD® substrate was supplied for 40 min. SEAP activity then was quantified by measuring luminescence as relative light units (RLU) using a Tecan Ultra reader. Each data point was recorded in quadruplicates and EC50 values were calculated via fitting function and the Microsoft Excel Solver.

| Structure (SMILES) | Biological activity (inhibition in the NF-κB inflammation assay) |
| --- | --- |
| N=C(NC(=O)c1csc(N2CCOCC2)n1)Nc1nc2ccccc2[nH]1 [compound 91] | + (“+” stands for 50-80% inhibition) |

Same assay, conditions: compounds of formula (I); TNF-α stimulated reporter cells; test concentration not given

| Structure (SMILES) | Biological activity (NF-κB inflammation assay, inhibition) |
| --- | --- |
| O=C(c1csc(C2CCN(C(=O)c3ccccc3OC(F)(F)F)CC2)n1)N1CCN(c2nc3ccccc3n2Cc2ccc(F)cc2)CC1 [compound 98] | +++ (“+++” stands for 90-100% inhibition) |
| O=C(c1csc(C2CCN(Cc3ccncc3)CC2)n1)N1CCN(c2cccc(C(F)(F)F)c2)CC1 [compound 107] | + (“+” stands for 50-80% inhibition) |
| O=C(c1csc(C2CCN(Cc3ccccc3OC(F)(F)F)CC2)n1)N1CCN(c2cccc(C(F)(F)F)c2)CC1 [compound 109] | + (“+” stands for 50-80% inhibition) |
| O=C(c1csc(C2CCN(C(=O)c3ccccc3OC(F)(F)F)CC2)n1)N(Cc1ccc(Cl)cc1)Cc1ccc(Cl)cc1 [compound 110] | + (“+” stands for 50-80% inhibition) |
| O=C(c1csc(C2CCN(C(=O)c3ccccc3OC(F)(F)F)CC2)n1)N1CCC(n2nnc3ccccc32)CC1 [compound 111] | + (“+” stands for 50-80% inhibition) |
| N#Cc1ccc(N2CCC(c3nc(C(=O)N4CCN(c5cccc(C(F)(F)F)c5)CC4)cs3)CC2)cc1 [compound 112] | + (“+” stands for 50-80% inhibition) |
| O=C(O)N1CCC(c2nc(C(=O)N3CCN(c4cccc(C(F)(F)F)c4)CC3)cs2)CC1 [compound 113] | + (“+” stands for 50-80% inhibition) |
| O=C(c1csc(C2CCN(Cc3cccc(OC(F)(F)F)c3)CC2)n1)N1CCN(c2cccc(C(F)(F)F)c2)CC1 [compound 115] | ++ (“++” means 80-90%) |
| CS(=O)(=O)c1ccc(N2CCC(c3nc(C(=O)N4CCN(c5cccc(C(F)(F)F)c5)CC4)cs3)CC2)cc1 [compound 117] | + (“+” stands for 50-80% inhibition) |
| O=C(c1csc(C2CCN(c3cc(C(F)(F)F)ccn3)CC2)n1)N1CCN(c2cccc(C(F)(F)F)c2)CC1 [compound 118] | + (“+” stands for 50-80% inhibition) |
| O=C(c1csc(C2CCN(c3ccccc3)CC2)n1)N1CCN(c2cccc(C(F)(F)F)c2)CC1 [compound 119] | + (“+” stands for 50-80% inhibition) |
| COc1nc(OC)nc(N2CCN(C(=O)c3csc(C4CCN(Cc5ccccc5)CC4)n3)CC2)n1 [compound 120] | + (“+” stands for 50-80% inhibition) |
| COc1nc(OC)nc(N2CCN(C(=O)c3csc(C4CCN(Cc5ccc(Br)cc5)CC4)n3)CC2)n1 [compound 121] | + (“+” stands for 50-80% inhibition) |
| O=C(c1csc(C2CCN(c3ccccn3)CC2)n1)N1CCN(c2cccc(C(F)(F)F)c2)CC1 [compound 123] | ++ (“++” means 80-90%) |
| CSc1nccc(N2CCN(C(=O)c3csc(C4CCN(C(=O)c5ccccc5OC(F)(F)F)CC4)n3)CC2)n1 [compound 124] | + (“+” stands for 50-80% inhibition) |
| COc1nc(OC)nc(N2CCN(C(=O)c3csc(C4CCN(C(=O)Cc5ccc(F)cc5)CC4)n3)CC2)n1 [compound 126] | + (“+” stands for 50-80% inhibition) |
| COc1nc(OC)nc(N2CCN(C(=O)c3csc(C4CCN(C(=O)c5ccccc5OC(F)(F)F)CC4)n3)CC2)n1 [compound 127] | + (“+” stands for 50-80% inhibition) |
| O=C(c1csc(C2CCN(C(=O)c3ccccc3OC(F)(F)F)CC2)n1)N1CCN(c2ncnc3nc[nH]c23)CC1 [compound 129] | + (“+” stands for 50-80% inhibition) |
| COc1cc(N2CCN(C(=O)c3csc(C4CCN(C(=O)c5ccccc5OC(F)(F)F)CC4)n3)CC2)nc(OC)n1 [compound 130] | + (“+” stands for 50-80% inhibition) |
| CC(c1cc2ccccc2[nH]1)N(C)C(=O)c1csc(C2CCN(C(=O)c3ccccc3OC(F)(F)F)CC2)n1 (stereo not shown) [compound 145] | + (“+” stands for 50-80% inhibition) |
| CN(C(=O)c1csc(C2CCN(C(=O)c3ccccc3OC(F)(F)F)CC2)n1)C(CN1CCOCC1)c1ccccc1 (stereo not shown) [compound 147] | + (“+” stands for 50-80% inhibition) |
| O=C(c1csc(C2CCN(C(=O)c3ccccc3OC(F)(F)F)CC2)n1)N(CCO)Cc1ccccc1 [compound 148] | ++ (“++” means 80-90%) |
| O=C(c1csc(C2CCN(C(=O)c3ccccc3OC(F)(F)F)CC2)n1)N(CCc1ccccc1)Cc1ccccc1 [compound 149] | + (“+” stands for 50-80% inhibition) |
| O=C(c1csc(C2CCN(C(=O)c3ccccc3OC(F)(F)F)CC2)n1)N1CCN(c2cccc(Cl)c2)CC1 [compound 151] | + (“+” stands for 50-80% inhibition) |
| COc1nc(OC)nc(N2CCN(C(=O)c3csc(C4CCNCC4)n3)CC2)n1 [compound 152] | ++ (“++” means 80-90%) |
| COc1ccc(N2CCC(c3nc(C(=O)N4CCN(c5cccc(C(F)(F)F)c5)CC4)cs3)CC2)c(OC)c1 [compound 153] | + (“+” stands for 50-80% inhibition) |
| O=C(c1csc(C2CCN(c3ccc(OC(F)(F)F)cc3)CC2)n1)N1CCN(c2cccc(C(F)(F)F)c2)CC1 [compound 154] | + (“+” stands for 50-80% inhibition) |
| O=C(c1csc(C2CCN(c3ccc(C(F)(F)F)cc3)CC2)n1)N1CCN(c2cccc(C(F)(F)F)c2)CC1 [compound 155] | + (“+” stands for 50-80% inhibition) |
| O=C(c1csc(C2CCN(c3ccc4c(c3)OCO4)CC2)n1)N1CCN(c2cccc(C(F)(F)F)c2)CC1 [compound 156] | + (“+” stands for 50-80% inhibition) |
| O=C(c1csc(C2CCN(c3ccc4c(c3)OCCO4)CC2)n1)N1CCN(c2cccc(C(F)(F)F)c2)CC1 [compound 157] | + (“+” stands for 50-80% inhibition) |

Same assay, conditions: compounds of formula (II); TNF-α stimulated reporter cells; test concentration not given

| Structure (SMILES) | Biological activity (NF-κB inflammation assay, inhibition) |
| --- | --- |
| O=C(NCC1CCN(c2nc(C(=O)N3CCN(c4cccc(C(F)(F)F)c4)CC3)cs2)CC1)c1ccc(C(F)(F)F)c(F)c1 [compound 99] | + (“+” stands for 50-80% inhibition) |
| O=C(CCC1CCCC1)NCC1CCN(c2nc(C(=O)N3CCN(c4cccc(C(F)(F)F)c4)CC3)cs2)CC1 [compound 100] | + (“+” stands for 50-80% inhibition) |
| O=C(NCC1CCN(c2nc(C(=O)N3CCN(c4cccc(C(F)(F)F)c4)CC3)cs2)CC1)c1ccccc1OC(F)(F)F [compound 101] | + (“+” stands for 50-80% inhibition) |
| N#Cc1ccc(C(=O)NCC2CCN(c3nc(C(=O)N4CCN(c5cccc(C(F)(F)F)c5)CC4)cs3)CC2)cc1 [compound 102] | + (“+” stands for 50-80% inhibition) |

Same assay, conditions: compounds of formula (Ia); TNF-α stimulated reporter cells; test concentration not given

| Structure (SMILES) | Biological activity (NF-κB inflammation assay, inhibition) |
| --- | --- |
| O=C(NCCc1cccs1)N1CCC(c2nc(C(=O)N3CCN(c4cccc(C(F)(F)F)c4)CC3)cs2)CC1 [compound 77] | +++ (“+++” stands for 90-100% inhibition) |
| CC(C)NC(=O)N1CCC(c2nc(C(=O)N3CCN(c4cccc(C(F)(F)F)c4)CC3)cs2)CC1 [compound 78] | + (“+” stands for 50-80% inhibition) |
| O=C(Nc1ccccc1OC(F)(F)F)N1CCC(c2nc(C(=O)N3CCN(c4cccc(C(F)(F)F)c4)CC3)cs2)CC1 [compound 79] | +++ (“+++” stands for 90-100% inhibition) |
| COc1cccc(NC(=O)N2CCC(c3nc(C(=O)N4CCN(c5cccc(C(F)(F)F)c5)CC4)cs3)CC2)c1 [compound 80] | + (“+” stands for 50-80% inhibition) |
| COc1cc(NC(=O)N2CCC(c3nc(C(=O)N4CCN(c5cccc(C(F)(F)F)c5)CC4)cs3)CC2)cc(OC)c1OC [compound 81] | ++ (“++” means 80-90%) |
| O=C(Nc1ccccc1)N1CCC(c2nc(C(=O)N3CCN(c4cccc(C(F)(F)F)c4)CC3)cs2)CC1 [compound 134] | + (“+” stands for 50-80% inhibition) |
| O=C(Nc1cccc(F)c1)N1CCC(c2nc(C(=O)N3CCN(c4cccc(C(F)(F)F)c4)CC3)cs2)CC1 [compound 142] | ++ (“++” means 80-90%) |
| O=C(Nc1ccc(F)cc1)N1CCC(c2nc(C(=O)N3CCN(c4cccc(C(F)(F)F)c4)CC3)cs2)CC1 [compound 143] | + (“+” stands for 50-80% inhibition) |

Same assay, conditions: compounds of formula (Ib); TNF-α stimulated reporter cells; test concentration not given

| Structure (SMILES) | Biological activity (NF-κB inflammation assay, inhibition) |
| --- | --- |
| Cc1sc(C2CCN(C(=O)c3ccccc3OC(F)(F)F)CC2)nc1CC(=O)N1CCN(c2cccc(C(F)(F)F)c2)CC1 [compound 103] | ++ (“++” means 80-90%) |
| Cc1sc(C2CCN(C(=O)c3ccccc3OC(F)(F)F)CC2)nc1CC(=O)N1CCN(c2cccc(Cl)c2)CC1 [compound 128] | +++ (“+++” stands for 90-100% inhibition) |

Same assay, conditions: compounds of formula (Ic); TNF-α stimulated reporter cells; test concentration not given

| Structure (SMILES) | Biological activity (NF-κB inflammation assay, inhibition) |
| --- | --- |
| CNc1ccc(Cl)cc1C1c2ccccc2CCN1C(=O)c1csc(C2CCN(C(=O)c3ccccc3OC(F)(F)F)CC2)n1 (stereo not shown) [compound 150] | ++ (“++” means 80-90%) |
